In general, EC50 refers to the concentration that produces a half-maximal response.

The target in the assay is T1, mutant CFTR (Homo sapiens, UniProt P13569, DEL508-508).
T1 construct: expressed in transfected cells
T1 sequence (P13569 with tags, fused parts or gaps DEL508-508): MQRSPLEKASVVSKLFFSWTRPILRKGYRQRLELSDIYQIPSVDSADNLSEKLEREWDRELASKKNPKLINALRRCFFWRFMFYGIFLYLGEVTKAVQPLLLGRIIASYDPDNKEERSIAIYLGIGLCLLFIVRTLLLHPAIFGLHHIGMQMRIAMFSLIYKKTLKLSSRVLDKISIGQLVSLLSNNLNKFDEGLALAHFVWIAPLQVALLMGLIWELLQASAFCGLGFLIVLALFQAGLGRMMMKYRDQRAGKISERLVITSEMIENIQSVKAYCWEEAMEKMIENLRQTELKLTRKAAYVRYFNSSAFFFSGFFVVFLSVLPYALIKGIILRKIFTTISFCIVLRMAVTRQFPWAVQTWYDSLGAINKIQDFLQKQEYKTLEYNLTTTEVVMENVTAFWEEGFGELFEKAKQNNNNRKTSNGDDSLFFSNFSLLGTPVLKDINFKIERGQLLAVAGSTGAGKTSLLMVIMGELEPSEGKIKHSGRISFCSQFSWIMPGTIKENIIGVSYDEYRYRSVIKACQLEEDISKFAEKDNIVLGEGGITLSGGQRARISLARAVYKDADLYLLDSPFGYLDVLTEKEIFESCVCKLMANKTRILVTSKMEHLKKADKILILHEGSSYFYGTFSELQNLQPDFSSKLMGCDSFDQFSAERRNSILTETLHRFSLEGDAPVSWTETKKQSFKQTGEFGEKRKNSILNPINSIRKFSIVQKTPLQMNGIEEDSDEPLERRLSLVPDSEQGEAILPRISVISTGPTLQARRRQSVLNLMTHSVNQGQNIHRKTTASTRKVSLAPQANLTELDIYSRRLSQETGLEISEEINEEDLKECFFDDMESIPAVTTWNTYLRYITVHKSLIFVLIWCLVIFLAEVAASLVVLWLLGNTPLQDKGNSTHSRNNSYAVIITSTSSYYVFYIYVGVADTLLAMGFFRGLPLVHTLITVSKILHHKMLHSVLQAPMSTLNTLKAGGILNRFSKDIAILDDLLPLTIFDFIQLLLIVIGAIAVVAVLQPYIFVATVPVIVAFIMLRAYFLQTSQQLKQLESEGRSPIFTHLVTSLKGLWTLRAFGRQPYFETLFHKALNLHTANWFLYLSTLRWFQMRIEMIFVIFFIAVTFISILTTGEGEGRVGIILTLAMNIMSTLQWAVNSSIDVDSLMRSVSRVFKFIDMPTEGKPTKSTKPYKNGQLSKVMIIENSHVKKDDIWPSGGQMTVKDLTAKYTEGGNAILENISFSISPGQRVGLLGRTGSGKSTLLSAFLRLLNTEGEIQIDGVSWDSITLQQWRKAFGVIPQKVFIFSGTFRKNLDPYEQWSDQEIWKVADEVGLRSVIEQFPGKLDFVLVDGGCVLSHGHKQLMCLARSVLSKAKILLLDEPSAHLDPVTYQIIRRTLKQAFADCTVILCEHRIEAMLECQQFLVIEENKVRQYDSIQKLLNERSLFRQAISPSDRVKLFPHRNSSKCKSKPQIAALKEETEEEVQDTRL
The experiment in a line: Fluorescence (HS-YFP) assay for CFTR activity, corrector assay. Type of assay: cell-based. As to conditions: CFBE41o- and FRT cells with stable expression of mutant CFTR, 24 h compound treatment. As for the experimental part: Fluorescence Assay for CFTR Activity
Mutant CFTR activity was determined with the functional assay based on the halide-sensitive yellow fluorescent protein, HS-YFP (Galietta et al., FEBS Lett 499: 220-224, 2001). CFBE41o- and FRT cells with stable expression of mutant CFTR and HS-YFP were plated on clear-bottom 96-well black microplates (Code 3603, Corning Life Sciences) at a density of 50,000 cells/well and kept at 37° C. in 5% CO2 for 24 hours. For the corrector assay, cells were treated for further 24 hours with test compounds, vehicle (DMSO), or the positive control VX-809. After treatment, the culture medium was removed and cells in each well were stimulated for 30 min at 37° C. with 60 μL PBS (containing 137 mM NaCl, 2.7 mM KCl, 8.1 mM Na2HPO4, 1.5 mM KH2PO4, 1 mM CaCl2, and 0.5 mM MgCl2) plus forskolin (20 μM) and genistein (50 μM).
For determination of potentiator activity on G551D-CFTR or G1349D-CFTR, cells were directly stimulated with forskolin plus test compound without previous incubation at low temperature. At the time of assay, microplates carrying CFBE41o- or FRT cells were transferred to microplate readers (BMG Labtech) equipped with high-quality excitation (HQ500/20X: 500±10 nm) and emission (HQ535/30M: 535±15 nm) filters for YFP (Chroma Technology). The assay consisted of a continuous 14 s fluorescence reading with 2 s before and 12 s after injection of an iodide-containing solution (165 μL of a modified PBS containing I^− instead of Cl^−; final I^− concentration in the well: 100 mM). Data were normalized to the initial background-subtracted fluorescence. Enhanced CFTR activity, induced by correctors and/or potentiators, results in accelerated I^− influx that in turn causes faster HS-YFP quenching (Pedemonte et al., Mol Pharmacol 68:1736-1746, 2005; Pedemonte et al., J Clin Invest 115:2564-2571, […]). To determine fluorescence quenching rate associated with I^− influx, the […] 10 s of data for each well were fitted with an exponential function to extrapolate initial slope (dF/dt).
EC50 obtained are illustrated in table 1 wherein +: EC50>2 μM; ++: 1.0 μM<EC50<2 μM; +++: EC50<1 μM.
On to `Cc1nn(-c2cccc(C(=O)N(C)c3ccc4c(c3)OCO4)n2)c(C)c1Cl` [compound 050, N-(1,3-Benzodioxol-5-yl)-6-(4-chloro-3,5-dimethyl-pyrazol-1-yl)-N-methyl-pyridine-2-carboxamide], for which the EC50 is over 2000 nM.
As for `Cc1nn(-c2cccc(C(=O)Nc3ccc4oc(C(F)(F)F)nc4c3)c2)c(C)c1Cl` [compound 054, 3-(4-Chloro-3,5-dimethyl-pyrazol-1-yl)-N-[2-(trifluoromethyl)-1,3-benzoxazol-5-yl]benzamide], the figure is 1000 to 2000 nM; as for `Cc1nn(-c2cccc(C(=O)N(C)c3ccc4oc(C5CC5)nc4c3)c2)c(C)c1Cl` [compound 055, 3-(4-Chloro-3,5-dimethyl-pyrazol-1-yl)-N-(2-cyclopropyl-1,3-benzoxazol-5-yl)-N-methyl-benzamide], 1000 to 2000 nM.
Regarding `Cc1nn(-c2cccc(C(=O)N(C)c3ccc4c(c3)OCO4)c2)c(C)c1C(N)=O` [compound 056, 1-[3-[1,3-Benzodioxol-5-yl(methyl)carbamoyl]phenyl]-3,5-dimethyl-pyrazole-4-carboxamide], the EC50 was over 2000 nM.
On to `Cc1nn(-c2cccc(C(=O)N(C)c3ccc4c(c3)COC4)c2)c(C)c1Cl` [compound 057], for which the concentration giving a half-maximal response (EC50) lay within 1000 to 2000 nM.
Turning to `Cc1nn(-c2cccc(C(=O)N(C)c3ccc4c(c3)CCO4)c2)c(C)c1Cl` [compound 058], the EC50 was under 1000 nM.
Turning to `Cc1nn(-c2cccc(C(=O)N(C)c3ccc4c(c3)OCO4)c2)c(C)c1C(=O)NCCO` [compound 059, 1-[3-[1,3-Benzodioxol-5-yl(methyl)carbamoyl]phenyl]-N-(2-hydroxyethyl)-3,5-dimethyl-pyrazole-4-carboxamide], the EC50 was over 2000 nM.
As for `Cc1nn(-c2cccc(C(=O)N(C)c3ccc4oc(C(C)C)nc4c3)c2)c(C)c1Cl` [compound 062, 3-(4-Chloro-3,5-dimethyl-pyrazol-1-yl)-N-(2-isopropyl-1,3-benzoxazol-5-yl)-N-methyl-benzamide], the figure is over 2000 nM; as for `COc1nc2cc(N(C)C(=O)c3cccc(-n4nc(C)c(Cl)c4C)c3)ccc2o1` [compound 064, 3-(4-Chloro-3,5-dimethyl-pyrazol-1-yl)-N-(2-methoxy-1,3-benzoxazol-5-yl)-N-methyl-benzamide], over 2000 nM.
As for `Cc1cc(C(=O)O)n(-c2cccc(C(=O)N(C)c3ccc4c(c3)OCO4)c2)n1` [compound 065, 2-[3-[1,3-benzodioxol-5-yl(methyl)carbamoyl]phenyl]-5-methyl-pyrazole-3-carboxylic acid], the EC50 was over 2000 nM.
The value for `Cc1cc(C(=O)O)nn1-c1cccc(C(=O)N(C)c2ccc3c(c2)OCO3)c1` [compound 066, 1-[3-[1,3-Benzodioxol-5-yl(methyl)carbamoyl]phenyl]-5-methyl-pyrazole-3-carboxylic acid] was over 2000 nM; that for `CCOC(=O)c1nn(-c2cccc(C(=O)N(C)c3ccc4c(c3)OCO4)c2)c(C)c1Cl` [compound 067, Ethyl 1-[3-[1,3-benzodioxol-5-yl(methyl)carbamoyl]phenyl]-4-chloro-5-methyl-pyrazole-3-carboxylate] was over 2000 nM; that for `COc1cccc(N(C)C(=O)c2cccc(-n3nc(C)c(Cl)c3C)c2)c1` [compound 068, 3-(4-Chloro-3,5-dimethyl-pyrazol-1-yl)-N-(3-methoxyphenyl)-N-methyl-benzamide] was under 1000 nM.
Turning to `Cc1c(Cl)c(C(=O)O)nn1-c1cccc(C(=O)N(C)c2ccc3c(c2)OCO3)c1` [compound 069, 1-[3-[1,3-Benzodioxol-5-yl(methyl)carbamoyl]phenyl]-4-chloro-5-methyl-pyrazole-3-carboxylic acid], the EC50 was over 2000 nM.
As for `Cc1cc(CO)n(-c2cccc(C(=O)N(C)c3ccc4c(c3)OCO4)c2)n1` [compound 070, N-(1,3-Benzodioxol-5-yl)-3-[5-(hydroxymethyl)-3-methyl-pyrazol-1-yl]-N-methyl-benzamide], the figure is over 2000 nM.
With `Cc1nn(-c2cc(C(=O)N(C)c3ccc4c(c3)OCO4)ccc2C(F)(F)F)c(C)c1Cl` [compound 071, N-(1,3-Benzodioxol-5-yl)-3-(4-chloro-3,5-dimethyl-pyrazol-1-yl)-N-methyl-4-(trifluoromethyl)benzamide], the EC50 was over 2000 nM.
As for `Cc1nn(-c2nccc(C(=O)N(C)c3ccc4c(c3)OCO4)n2)c(C)c1Cl` [compound 072, N-(1,3-Benzodioxol-5-yl)-2-(4-chloro-3,5-dimethyl-pyrazol-1-yl)-N-methyl-pyrimidine-4-carboxamide], the figure is over 2000 nM; as for `Cc1c(Cl)c(CO)nn1-c1cccc(C(=O)N(C)c2ccc3c(c2)OCO3)c1` [compound 073, N-(1,3-Benzodioxol-5-yl)-3-[4-chloro-3-(hydroxylmethyl)-5-methyl-pyrazol-1-yl]-N-methyl-benzamide], over 2000 nM.
As for `Cc1c(Cl)c(C(N)=O)nn1-c1cccc(C(=O)N(C)c2ccc3c(c2)OCO3)c1` [compound 074, 1-[3-[1,3-Benzodioxol-5-yl(methyl)carbamoyl]phenyl]-4-chloro-5-methyl-pyrazole-3-carboxamide], the figure is over 2000 nM.
With `CCc1nc2ccc(N(C)C(=O)c3cccc(-n4nc(C)c(Cl)c4C)c3)cc2o1` [compound 076, 3-(4-Chloro-3,5-dimethyl-pyrazol-1-yl)-N-(2-ethyl-1,3-benzoxazol-6-yl)-N-methyl-benzamide], the EC50 is under 1000 nM.
The value for `Cc1cn2cc(N(C)C(=O)c3cccc(-n4nc(C)c(Cl)c4C)c3)ccc2n1` [compound 077, 3-(4-Chloro-3,5-dimethyl-pyrazol-1-yl)-N-methyl-N-(2-methylimidazo[1,2-a]pyridin-6-yl)benzamide] was under 1000 nM; that for `Cc1nn(-c2cccc(C(=O)N(C)c3ccc4oc(C(F)(F)F)nc4c3)c2)c(C)c1Cl` [compound 078, 3-(4-Chloro-3,5-dimethyl-pyrazol-1-yl)-N-methyl-N-[2-(trifluoromethyl)-1,3-benzoxazol-5-yl]benzamide] was over 2000 nM; that for `Cc1nc2ccc(N(C)C(=O)c3cccc(-n4nc(C)c(Cl)c4C)c3)cn2n1` [compound 079, 3-(4-Chloro-3,5-dimethyl-pyrazol-1-yl)-N-methyl-N-(2-methyl-[1,2,4]triazolo[1,5-a]pyridin-6-yl)benzamide] was over 2000 nM.
As for `Cc1nn(-c2cccc(C(=O)N(C)c3ccc4c(c3)OCO4)c2)c(C)c1C#N` [compound 081, N-(1,3-Benzodioxol-5-yl)-3-(4-cyano-3,5-dimethyl-pyrazol-1-yl)-N-methyl-benzamide], the figure is over 2000 nM; as for `Cc1ccc(C(=O)N(C)c2ccc3c(c2)OCO3)cc1-n1nc(C)c(Cl)c1C` [compound 082, N-(1,3-Benzodioxol-5-yl)-3-(4-chloro-3,5-dimethyl-pyrazol-1-yl)-N,4-dimethyl-benzamide], 1000 to 2000 nM; as for `Cc1nn(-c2cccc(C(=O)N(C)c3ccc4c(c3)OCO4)c2)c(C(=O)O)c1Cl` [compound 083, 2-[3-[1,3-Benzodioxol-5-yl(methyl)carbamoyl]phenyl]-4-chloro-5-methyl-pyrazole-3-carboxylic acid], over 2000 nM.
As for `Cc1nn(-c2cccc(C(=O)N(C)c3ccc4c(c3)OCO4)c2)c(C(N)=O)c1Cl` [compound 084, 2-[3-[1,3-benzodioxol-5-yl(methyl)carbamoyl]phenyl]-4-chloro-5-methyl-pyrazole-3-carboxamide], the figure is over 2000 nM; as for `CNC(=O)c1c(Cl)c(C)nn1-c1cccc(C(=O)N(C)c2ccc3c(c2)OCO3)c1` [compound 085, 2-[3-[1,3-benzodioxol-5-yl(methyl)carbamoyl]phenyl]-4-chloro-N,5-dimethyl-pyrazole-3-carboxamide], over 2000 nM.
On to `CCOC(=O)c1nn(-c2cccc(C(=O)N(C)c3ccc4c(c3)OCO4)c2)c(C(C)C)c1Cl` [compound 086, Ethyl 1-[3-[1,3-benzodioxol-5-yl(methyl)carbamoyl]phenyl]-4-chloro-5-isopropyl-pyrazole-3-carboxylate], for which the EC50 is over 2000 nM.
As to `CCOC(=O)c1c(Cl)c(C(C)C)nn1-c1cccc(C(=O)N(C)c2ccc3c(c2)OCO3)c1` [compound 087, Ethyl 2-[3-[1,3-benzodioxol-5-yl(methyl)carbamoyl]phenyl]-4-chloro-5-isopropyl-pyrazole-3-carboxylate], the EC50 is under 1000 nM.
Take `Cc1nn(-c2cccc(C(=O)N(C)c3ccc4c(c3)OCO4)c2)c(C(=O)N(C)C)c1Cl` [compound 088, 2-[3-[1,3-benzodioxol-5-yl(methyl)carbamoyl]phenyl]-4-chloro-N,N,5-trimethyl-pyrazole-3-carboxamide]: the EC50 was over 2000 nM.

The record behind these values is patent US12492193B2, “Pyrazole derivatives for the treatment of cystic fibrosis” (Fondazione Istituto Italiano Di Tecnologia, priority 2017, dated 2025).
